Measurements: ChEMBL document CHEMBL1155521, “Synthesis and antibacterial activity of novel 4''-O-arylalkylcarbamoyl and 4''-O-((arylalkylamino)-4-oxo-butyl)carbamoyl clarithromycin derivatives” (2010)
≈ marks a conversion by molar mass, not a printed value.

Key:
Assay type in all cases: functional
Streptococcus pneumoniae [1] = test: Antibacterial activity against erythromycin-resistant Streptococcus pneumoniae A22072 expressing mef gene by broth microdilution method
Streptococcus pneumoniae [2] = test: Antibacterial activity against erythromycin-resistant Streptococcus pneumoniae B1 expressing erm gene by broth microdilution method
Streptococcus pneumoniae [3] = test: Antibacterial activity against erythromycin-susceptible Streptococcus pneumoniae ATCC 49619 by broth microdilution method
Streptococcus pneumoniae [4] = test: Antibacterial activity against erythromycin-resistant Streptococcus pneumoniae AB1-1 expressing erm and mef gene by broth microdilution method

| SMILES | MIC (Streptococcus pneumoniae [1]) [µg/mL] | MIC (Streptococcus pneumoniae [2]) [µg/mL] | MIC (Streptococcus pneumoniae [3]) [µg/mL] | MIC (Streptococcus pneumoniae [4]) [µg/mL] |
| --- | --- | --- | --- | --- |
| CC[C@H]1OC(=O)[C@H](C)[C@@H](O[C@H]2C[C@@](C)(OC)[C@@H](OC(=O)NCc3ccccc3)[C@H](C)O2)[C@H](C)[C@@H](O[C@@H]2O[C@H](C)C[C@H](N(C)C)[C@H]2O)[C@](C)(OC)C[C@@H](C)C(=O)[C@H](C)[C@@H](O)[C@]1(C)O | 0.25 (≈ 0.284 µM) | 4 (≈ 4.54 µM) | 0.25 (≈ 0.284 µM) | 8 (≈ 9.08 µM) |
| CC[C@H]1OC(=O)[C@H](C)[C@@H](O[C@H]2C[C@@](C)(OC)[C@@H](OC(=O)NCc3ccc(F)cc3)[C@H](C)O2)[C@H](C)[C@@H](O[C@@H]2O[C@H](C)C[C@H](N(C)C)[C@H]2O)[C@](C)(OC)C[C@@H](C)C(=O)[C@H](C)[C@@H](O)[C@]1(C)O | 0.5 (≈ 0.556 µM) | 4 (≈ 4.45 µM) | 0.06 (≈ 0.0667 µM) | 8 (≈ 8.9 µM) |
| CC[C@H]1OC(=O)[C@H](C)[C@@H](O[C@H]2C[C@@](C)(OC)[C@@H](OC(=O)NCc3ccc(OC)cc3)[C@H](C)O2)[C@H](C)[C@@H](O[C@@H]2O[C@H](C)C[C@H](N(C)C)[C@H]2O)[C@](C)(OC)C[C@@H](C)C(=O)[C@H](C)[C@@H](O)[C@]1(C)O | 0.25 (≈ 0.274 µM) | 16 (≈ 17.6 µM) | 0.03 (≈ 0.0329 µM) | 32 (≈ 35.1 µM) |
| CC[C@H]1OC(=O)[C@H](C)[C@@H](O[C@H]2C[C@@](C)(OC)[C@@H](OC(=O)NCCc3ccc(O)cc3)[C@H](C)O2)[C@H](C)[C@@H](O[C@@H]2O[C@H](C)C[C@H](N(C)C)[C@H]2O)[C@](C)(OC)C[C@@H](C)C(=O)[C@H](C)[C@@H](O)[C@]1(C)O | 1 (≈ 1.1 µM) | 16 (≈ 17.6 µM) | 0.03 (≈ 0.0329 µM) | 64 (≈ 70.2 µM) |
| CC[C@H]1OC(=O)[C@H](C)[C@@H](O[C@H]2C[C@@](C)(OC)[C@@H](OC(=O)NCCc3ccccc3Cl)[C@H](C)O2)[C@H](C)[C@@H](O[C@@H]2O[C@H](C)C[C@H](N(C)C)[C@H]2O)[C@](C)(OC)C[C@@H](C)C(=O)[C@H](C)[C@@H](O)[C@]1(C)O | 4 (≈ 4.3 µM) | 128 (≈ 138 µM) | 0.12 (≈ 0.129 µM) | 128 (≈ 138 µM) |
| CC[C@H]1OC(=O)[C@H](C)[C@@H](O[C@H]2C[C@@](C)(OC)[C@@H](OC(=O)NCCc3ccccc3)[C@H](C)O2)[C@H](C)[C@@H](O[C@@H]2O[C@H](C)C[C@H](N(C)C)[C@H]2O)[C@](C)(OC)C[C@@H](C)C(=O)[C@H](C)[C@@H](O)[C@]1(C)O | 0.5 (≈ 0.559 µM) | 16 (≈ 17.9 µM) | 0.06 (≈ 0.067 µM) | 32 (≈ 35.7 µM) |
| CC[C@H]1OC(=O)[C@H](C)[C@@H](O[C@H]2C[C@@](C)(OC)[C@@H](OC(=O)NCCc3ccc4c(c3)OCO4)[C@H](C)O2)[C@H](C)[C@@H](O[C@@H]2O[C@H](C)C[C@H](N(C)C)[C@H]2O)[C@](C)(OC)C[C@@H](C)C(=O)[C@H](C)[C@@H](O)[C@]1(C)O | 0.25 (≈ 0.266 µM) | 32 (≈ 34.1 µM) | 0.06 (≈ 0.0639 µM) | 64 (≈ 68.1 µM) |
| CC[C@H]1OC(=O)[C@H](C)[C@@H](O[C@H]2C[C@@](C)(OC)[C@@H](OC(=O)NCCCC(=O)NCc3ccccc3)[C@H](C)O2)[C@H](C)[C@@H](O[C@@H]2O[C@H](C)C[C@H](N(C)C)[C@H]2O)[C@](C)(OC)C[C@@H](C)C(=O)[C@H](C)[C@@H](O)[C@]1(C)O | 0.5 (≈ 0.517 µM) | 2 (≈ 2.07 µM) | 0.03 (≈ 0.031 µM) | 0.25 (≈ 0.259 µM) |
| CC[C@H]1OC(=O)[C@H](C)[C@@H](O[C@H]2C[C@@](C)(OC)[C@@H](OC(=O)NCCCC(=O)NCc3ccc(F)cc3)[C@H](C)O2)[C@H](C)[C@@H](O[C@@H]2O[C@H](C)C[C@H](N(C)C)[C@H]2O)[C@](C)(OC)C[C@@H](C)C(=O)[C@H](C)[C@@H](O)[C@]1(C)O | 0.25 (≈ 0.254 µM) | 1 (≈ 1.02 µM) | 0.03 (≈ 0.0305 µM) | 2 (≈ 2.03 µM) |
| CC[C@H]1OC(=O)[C@H](C)[C@@H](O[C@H]2C[C@@](C)(OC)[C@@H](OC(=O)NCCCC(=O)NCc3ccc(OC)cc3)[C@H](C)O2)[C@H](C)[C@@H](O[C@@H]2O[C@H](C)C[C@H](N(C)C)[C@H]2O)[C@](C)(OC)C[C@@H](C)C(=O)[C@H](C)[C@@H](O)[C@]1(C)O | 0.25 (≈ 0.251 µM) | 0.06 (≈ 0.0602 µM) | 0.03 (≈ 0.0301 µM) | 1 (≈ 1 µM) |
| CC[C@H]1OC(=O)[C@H](C)[C@@H](O[C@H]2C[C@@](C)(OC)[C@@H](OC(=O)NCCCC(=O)NCCc3ccc(O)cc3)[C@H](C)O2)[C@H](C)[C@@H](O[C@@H]2O[C@H](C)C[C@H](N(C)C)[C@H]2O)[C@](C)(OC)C[C@@H](C)C(=O)[C@H](C)[C@@H](O)[C@]1(C)O | 0.5 (≈ 0.502 µM) | 0.25 (≈ 0.251 µM) | 0.03 (≈ 0.0301 µM) | 1 (≈ 1 µM) |
| CC[C@H]1OC(=O)[C@H](C)[C@@H](O[C@H]2C[C@@](C)(OC)[C@@H](OC(=O)NCCCC(=O)NCCc3ccccc3Cl)[C@H](C)O2)[C@H](C)[C@@H](O[C@@H]2O[C@H](C)C[C@H](N(C)C)[C@H]2O)[C@](C)(OC)C[C@@H](C)C(=O)[C@H](C)[C@@H](O)[C@]1(C)O | 1 (≈ 0.986 µM) | 32 (≈ 31.5 µM) | 0.03 (≈ 0.0296 µM) | 32 (≈ 31.5 µM) |
| CC[C@H]1OC(=O)[C@H](C)[C@@H](O[C@H]2C[C@@](C)(OC)[C@@H](O)[C@H](C)O2)[C@H](C)[C@@H](O[C@@H]2O[C@H](C)C[C@H](N(C)C)[C@H]2O)[C@](C)(O)C[C@@H](C)CN(C)[C@H](C)[C@@H](O)[C@]1(C)O [AZITHROMYCIN] | 4 (≈ 5.34 µM) | 128 (≈ 171 µM) | 0.03 (≈ 0.0401 µM) | 256 (≈ 342 µM) |
| CC[C@H]1OC(=O)[C@H](C)[C@@H](O[C@H]2C[C@@](C)(OC)[C@@H](O)[C@H](C)O2)[C@H](C)[C@@H](O[C@@H]2O[C@H](C)C[C@H](N(C)C)[C@H]2O)[C@](C)(OC)C[C@@H](C)C(=O)[C@H](C)[C@@H](O)[C@]1(C)O [CLARITHROMYCIN] | 4 (≈ 5.35 µM) | 64 (≈ 85.6 µM) | 0.03 (≈ 0.0401 µM) | 128 (≈ 171 µM) |
| CC[C@H]1OC(=O)[C@H](C)[C@@H](O[C@H]2C[C@@](C)(OC)[C@@H](O)[C@H](C)O2)[C@H](C)[C@@H](O[C@@H]2O[C@H](C)C[C@H](N(C)C)[C@H]2O)[C@](C)(O)C[C@@H](C)C(=O)[C@H](C)[C@@H](O)[C@]1(C)O [ERYTHROMYCIN] | 8 (≈ 10.9 µM) | 128 (≈ 174 µM) | 0.03 (≈ 0.0409 µM) | 256 (≈ 349 µM) |
